According to patent US8173808B2, “Substituted naphthalenyl-pyrimidine compounds” (ArQule, Inc., priority 2009, dated 2012):

Legend:
DLD-1 = test: MTS assay, DLD-1; type: cell-based; conditions: Homo sapiens, 72 hours, 1 Percent FBS
Procedure: (§1) Cells were maintained at 37° C., 5% CO2 in DMEM media supplemented with 1% fetal bovine serum, penicillin/streptomycin and fungizone (Invitrogen). Cells were seeded into 96-well tissue culture plates at 3000 per well and cultured at 37° C. for 18 hours. Test compounds were dissolved and diluted to 300× in DMSO then diluted 1:40 in DMEM. Cells were incubated with test compounds for 72 hours followed by incubation with tetrazolium compound (3-(4,5-dimethylthiazol-2-yl)-5-(3-carboxymethoxyphenyl)-2-(4-sulfophenyl)-2H-tetrazolium, inner salt; MTS) and the electron coupling reagent, phenazine methosulfate (PMS) for 4 hours. […] The ability of compounds to inhibit cell growth in this assay is correlated with the reduction of dehydrogenase enzyme activity found in metabolically active cells. The measurement of the absorbance of the formazan was assessed using a Victor (Perkin Elmer) microplate reader at 492 nm. The calculated IC50 value is the concentration of the test compound that causes a 50% decrease in the absorbance.

MDA-MB-231 = test: MTS assay, MDA-MB-231; type: cell-based; conditions: Homo sapiens, 72 hours, 1 Percent FBS
Procedure: as §1

Row | Compound | inhibition at 10 µM (DLD-1) | inhibition at 10 µM (MDA-MB-231)
1 | COc1ccc2cc(-c3ccnc(NCC(C)(C)CN(C)C)n3)cc(N3CCNCC3)c2c1 [Compound 136, N′-[4-(6-methoxy-4-piperazin-1-yl-2-naphthyl)pyrimidin-2-yl]-N,N,2,2-tetramethylpropane-1,3-diamine] | 97% | 95%
2 | COc1ccc2cc(-c3ccnc(NCC(C)(C)CN(C)C)n3)cc(N3CCOCC3)c2c1 [Compound 30, N′-[4-(6-methoxy-4-morpholin-4-yl-2-naphthyl)pyrimidin-2-yl]-N,N,2,2-tetramethylpropane-1,3-diamine] | 63% | 78%
3 | COc1ccc2cc(-c3ccnc(NCc4ccc(OC)c(OC)c4)n3)cc(N3CCNCC3)c2c1 [Compound 121, N-(3,4-dimethoxybenzyl)-4-(6-methoxy-4-piperazin-1-yl-2-naphthyl)pyrimidin-2-amine] | 97% | 99%
4 | CNc1nccc(-c2cc(NC(=O)CN3CCN(CCO)CC3)c3cc(OC)ccc3c2)n1 [Compound 38, 2-[4-(2-hydroxyethyl)piperazin-1-yl]-N-{7-methoxy-3-[2-(methylamino)pyrimidin-4-yl]-1-naphthyl}acetamide] | 98% | 98%
5 | CNc1nccc(-c2cc(NC(=O)CNCC(C)(C)CO)c3cc(OC)ccc3c2)n1 [Compound 50, N~2~-(3-hydroxy-2,2-dimethylpropyl)-N-{7-methoxy-3-[2-(methylamino)pyrimidin-4-yl]-1-naphthyl}glycinamide] | 97% | 94%
6 | COc1ccc2cc(-c3ccnc(NCc4cccc(C(F)(F)F)c4)n3)cc(N3CCNCC3)c2c1 [Compound 127, 4-(6-methoxy-4-piperazin-1-yl-2-naphthyl)-N-[3-(trifluoromethyl)benzyl] pyrimidin-2-amine] | 97% | 99%
7 | COc1ccc2cc(-c3ccnc(NCCN4CCCC4)n3)cc(N3CCOCC3)c2c1 [Compound 29, 4-(6-methoxy-4-morpholin-4-yl-2-naphthyl)-N-(2-pyrrolidin-1-ylethyl)pyrimidin-2-amine] | 81% | 76%
8 | CNc1nccc(-c2cc(NC(=O)CNCCOC)c3cc(OC)ccc3c2)n1 [Compound 85, N~2~-(2-methoxyethyl)-N-{7-methoxy-3-[2-(methylamino)pyrimidin-4-yl]-1-naphthyl}glycinamide] | 98% | 90%
9 | COCCNc1nccc(-c2cc(NC(=O)OC(C)(C)C)c3cc(OC)ccc3c2)n1 [Compound 100, tert-butyl (7-methoxy-3-{2-[(2-methoxyethyl)amino]pyrimidin-4-yl}-1-naphthyl)carbamate] | 70% | 31%
10 | CNc1nccc(-c2cc(NC3CCN(c4ncccc4C(=O)OC)CC3)c3cc(OC)ccc3c2)n1 [Compound 168, methyl 2-[4-({7-methoxy-3-[2-(methylamino)pyrimidin-4-yl]-1-naphthyl}amino)piperidin-1-yl]nicotinate] | 98% | 99%
11 | COc1ccc2cc(-c3ccnc(NCCN(C)C)n3)cc(N3CCNCC3)c2c1 [Compound 125, N′-[4-(6-methoxy-4-piperazin-1-yl-2-naphthyl)pyrimidin-2-yl]-N,N-dimethylethane-1,2-diamine] | 96% | 96%
12 | CNc1nccc(-c2cc(NC(=O)CN3CCN(C4CCN(C)CC4)CC3)c3cc(OC)ccc3c2)n1 [Compound 83, N-{7-methoxy-3-[2-(methylamino)pyrimidin-4-yl]-1-naphthyl}-2-[4-(1-methylpiperidin-4-yl)piperazin-1-yl]acetamide] | 99% | 99%
13 | COc1ccc2cc(-c3ccnc(NCc4ccccc4C)n3)cc(N3CCNCC3)c2c1 [Compound 128, 4-(6-methoxy-4-piperazin-1-yl-2-naphthyl)-N-(2-methylbenzyl)pyrimidin-2-amine] | 97% | 98%
14 | COc1ccc2cc(-c3ccnc(NCCc4ccccn4)n3)cc(N3CCNCC3)c2c1 [Compound 123, 4-(6-methoxy-4-piperazin-1-yl-2-naphthyl)-N-(2-pyridin-2-ylethyl)pyrimidin-2-amine] | 97% | 98%
15 | CNc1nccc(-c2cc(NC(=O)CNCCOC(C)C)c3cc(OC)ccc3c2)n1 [Compound 53, N~2~-(2-isopropoxyethyl)-N-{7-methoxy-3-[2-(methylamino)pyrimidin-4-yl]-1-naphthyl}glycinamide] | 92% | 81%
16 | COc1cc(CCNc2nccc(-c3cc(N4CCNCC4)c4cc(OC)ccc4c3)n2)cc(OC)c1 [Compound 132, N-[2-(3,5-dimethoxyphenyl)ethyl]-4-(6-methoxy-4-piperazin-1-yl-2-naphthyl)pyrimidin-2-amine] | 97% | 98%

Row | Compound | inhibition at 10 µM (DLD-1) | inhibition at 10 µM (MDA-MB-231)
17 | CCN1CCCC(Nc2nccc(-c3cc(N4CCOCC4)c4cc(OC)ccc4c3)n2)C1 (centres unmarked) [Compound 14, N-(1-ethylpiperidin-3-yl)-4-(6-methoxy-4-morpholin-4-yl-2-naphthyl)pyrimidin-2-amine] | 98% | 99%
18 | COc1ccc(CNc2nccc(-c3cc(N4CCOCC4)c4cc(OC)ccc4c3)n2)cc1 [Compound 28, N-(4-methoxybenzyl)-4-(6-methoxy-4-morpholin-4-yl-2-naphthyl)pyrimidin-2-amine] | 98% | 99%
19 | COc1ccc2cc(-c3ccnc(NCCc4cccnc4)n3)cc(NC(=O)OC(C)(C)C)c2c1 [Compound 98, tert-butyl (7-methoxy-3-{2-[(2-pyridin-3-ylethyl)amino]pyrimidin-4-yl}-1-naphthyl)carbamate] | 98% | 86%
20 | CCN(CC)CCCN1CCN(CC(=O)Nc2cc(-c3ccnc(NC)n3)cc3ccc(OC)cc23)CC1 [Compound 36, 2-{4-[3-(diethylamino)propyl]piperazin-1-yl}-N-{7-methoxy-3-[2-(methylamino)pyrimidin-4-yl]-1-naphthyl}acetamide] | 87% | 92%
21 | COc1ccc2cc(-c3ccnc(NC4CC(C)(C)N(C)C(C)(C)C4)n3)cc(NC(=O)OC(C)(C)C)c2c1 [Compound 103, tert-butyl (7-methoxy-3-{2-[(1,2,2,6,6-pentamethylpiperidin-4-yl)amino]pyrimidin-4-yl}-1-naphthyl)carbamate] | 74% | 89%
22 | COc1ccc2cc(-c3ccnc(NCCc4cccc(OC)c4OC)n3)cc(NC(=O)OC(C)(C)C)c2c1 [Compound 94, tert-butyl [3-(2-{[2-(2,3-dimethoxyphenyl)ethyl]amino}pyrimidin-4-yl)-7-methoxy-1-naphthyl]carbamate] | 37% | 35%
23 | CNc1nccc(-c2cc(NC(=O)CNc3nc4ccccc4n3C)c3cc(OC)ccc3c2)n1 [Compound 58, N-{7-methoxy-3-[2-(methylamino)pyrimidin-4-yl]-1-naphthyl}-N~2~-(1-methyl-1H-benzimidazol-2-yl)glycinamide] | 98% | 99%
24 | CNc1nccc(-c2cc(NC3CCN(c4ccc5ccccc5n4)CC3)c3cc(OC)ccc3c2)n1 [Compound 154, 4-{6-methoxy-4-[(1-quinolin-2-ylpiperidin-4-yl)amino]-2-naphthyl}-N-methylpyrimidin-2-amine] | 82% | 41%
25 | CNc1nccc(-c2cc(NC(=O)CN3CCN(CCN(C)C)CC3)c3cc(OC)ccc3c2)n1 [Compound 67, 2-{4-[2-(dimethylamino)ethyl]piperazin-1-yl}-N-{7-methoxy-3-[2-(methylamino)pyrimidin-4-yl]-1-naphthyl}acetamide] | 31% | 53%
26 | CNc1nccc(-c2cc(NC(=O)CN3CCN(CCCN(C)C)CC3)c3cc(OC)ccc3c2)n1 [Compound 65, 2-{4-[3-(dimethylamino)propyl]piperazin-1-yl}-N-{7-methoxy-3-[2-(methylamino)pyrimidin-4-yl]-1-naphthyl}acetamide] | 98% | 98%
27 | COc1ccc2cc(-c3ccnc(NCc4cncn4C)n3)cc(N3CCOCC3)c2c1 [Compound 16, 4-(6-methoxy-4-morpholin-4-yl-2-naphthyl)-N-[(1-methyl-1H-imidazol-5-yl)methyl]pyrimidin-2-amine] | 98% | 96%
28 | COc1ccc2cc(-c3ccnc(NCc4ccccn4)n3)cc(N3CCNCC3)c2c1 [Compound 120, 4-(6-methoxy-4-piperazin-1-yl-2-naphthyl)-N-(pyridin-2-ylmethyl)pyrimidin-2-amine] | 83% | 78%
29 | COCCNc1nccc(-c2cc(N3CCNCC3)c3cc(OC)ccc3c2)n1 [Compound 119, N-(2-methoxyethyl)-4-(6-methoxy-4-piperazin-1-yl-2-naphthyl)pyrimidin-2-amine] | 94% | 93%
30 | COc1ccc2cc(-c3ccnc(NC4CCN(Cc5ccccc5)CC4)n3)cc(NC(=O)OC(C)(C)C)c2c1 [Compound 101, tert-butyl (3-{2-[(1-benzylpiperidin-4-yl)amino]pyrimidin-4-yl}-7-methoxy-1-naphthyl)carbamate] | 96% | 98%
31 | COCCNc1nccc(-c2cc(N3CCOCC3)c3cc(OC)ccc3c2)n1 [Compound 23, N-(2-methoxyethyl)-4-(6-methoxy-4-morpholin-4-yl-2-naphthyl)pyrimidin-2-amine] | 98% | 91%
